Laboratory results from patent US20230174584A1, “Antibiotic Compounds” (priority 2019, published 2023).
Where two headings read alike, the source gives them in different places.

Experiments:
[1] = Cytotoxicity assay for HepG2 (MTT); type: cell-based, human; settings: human
Description: (§1) Mammalian cytotoxicity assays were performed by Cyprotex. Cytotoxicity was assessed using the MTT assay. Briefly, HepG2 human hepatocellular carcinoma cells (100 μL per well) were plated on black-walled clear-bottomed polystyrene 96-well tissue culture treated plates 24 h prior to dosing the cells. The cells were dosed with test compound (dissolved in 0.5% DMSO in growth media containing 10% FBS) at a range of concentrations (0.04 μM, 0.1 μM, 0.4 μM, 1 μM, 4 μM, 10 μM, 40 μM, 100 μM). After 23 h period the cells were loaded with the MTT dye (yellow; 3-(4,5-dimethyl-2-thiazolyl)-2,5-diphenyl-2H-tetrazolium bromide) followed by an additional 1 h incubation (resulting in a total incubation time with antibiotics of 24 h). Subsequently, the plates are dried and solubilized in DMSO followed by scanning at 570 nm using a microplate absorbance reader. Cell viability is determined by conversion of the soluble MTT to insoluble formazan (purple) by mitochondrial […] in live cells. Production of formazan indicates […]. Carbonyl cyanide 3-chlorophenylhydrazone is used as no response control and chlorpromazine is used as control known to be cytotoxic. Solvent control wells (0.5% DMSO in growth media containing 10% FBS) are then used to determine significance limits for wells that have a greater than expected fraction of low or high responders. The minimum effective concentration is determined from the lowest concentration whose mean value exceeds the significance level, provided either a clear dose-response relationship is observed, or at least two consecutive concentration points are above the significance level. AC50 values are also determined provided a clear dose-response relationship is observed. Experiment was performed in triplicates.

[2] = system: HepG2 human hepatocellular carcinoma cells; experiment: Cytotoxicity assay for HepG2 (MTT); type: cell-based
Description: as §1

MRSA USA 300 = experiment: Resistance development serial passage assay; type: cell-based, Staphylococcus aureus; settings: MRSA serially passaged over 30 days in sub-lethal antibiotic concentrations
Description: (§2) FIG. 3 illustrates the results obtained when selected compounds were assessed using a resistance development serial passage assay. A) Daily fold-increase of MIC compared to initial MIC against MRSA USA 300 grown in sub-lethal concentrations of daptomycin, compound 5 or compound 16 over 30 days. B). Daily fold-increase of MIC compared to initial MIC against VRE E155 grown in sub-lethal concentrations of daptomycin, compound 5 or compound 16 over 30 days.
(§3) From glycerol stocks, bacterial strains were cultured on blood agar plates and incubated overnight at 37° C. A single colony was grown to exponential phase (OD600=0.5) in TSB+0.002% p80 and diluted 1:100 in fresh media. In polypropylene 96-well microtiter plates, antibiotics were added in biological triplicates and serial diluted 2-fold by transfer and mixing from one well to the next to achieve a final volume of 50 μL per well. An equal volume of bacterial suspension was added to the wells and plates were incubated overnight at 37° C. […] This procedure was repeated for 30 days and the MIC was recorded daily. Cultures containing daptomycin were supplemented with 50 mg L^−1 CaCl2 and 10 mg L^−1 MgSO4. The experiment was performed in biological replicates and for each replicate the MIC was determined from the median of a minimum of triplicates.

VRE E155 = experiment: Resistance development serial passage assay; type: cell-based, Enterococcus faecium; settings: VanA-type VRE strain serially passaged over 30 days in sub-lethal antibiotic concentrations
Description: as §2, §3

CN(C)CCCN1c2ccccc2Sc2ccc(Cl)cc21 [Chropromazine]
AC50 at 24 h [1]: 19 µM
Direction of response (↑↓) [2]: ↓
MEC ([2]; human, 24 h): 12.4 µM

N#CC(C#N)=NNc1cccc(Cl)c1 [carbonyl cyanide 3-chlorophenylhydrazone]
AC50 at 24 h ([1]; HepG2 human hepatocellular carcinoma cells, MTT, HepG2, 24 h, 10% FBS, n = 3, read-out: AC50): > 100 µM

CCCCCCCCCC(=O)N[C@@H](Cc1c[nH]c2ccccc12)C(=O)N[C@H](CC(N)=O)C(=O)N[C@@H](CC(=O)O)C(=O)N[C@@H]1C(=O)NCC(=O)N[C@@H](CCCN)C(=O)N[C@@H](CC(=O)O)C(=O)N[C@H](C)C(=O)N[C@@H](CC(=O)O)C(=O)NCC(=O)N[C@H](CO)C(=O)N[C@@H]([C@H](C)CC(=O)O)C(=O)N[C@@H](CC(=O)c2ccccc2N)C(=O)O[C@@H]1C [daptomycin, reference compound]
resistance induction, fold-increase of MIC compared to initial MIC (MRSA USA 300): 16 fold
resistance induction, fold-increase of MIC compared to initial MIC (VRE E155): 128 fold
